Assay results from patent US20240019418A1, “RECEPTORS FOR CYCLIC DINUCLEOTIDES AND METHODS FOR SCREENING AGONISTS OR INHIBITORS THEREOF” (GUANGZHOU WINKEY TECHNOLOGY CO., LTD., priority 2017, published 2024).

Biological target: T1, subtype M of human STING (Homo sapiens, UniProt Q86WV6)
T1 construct: expressed in transfected cells
Test: type 1 interferon promoter luciferase reporter in HEK293T cell lines stably expressing subtype M of human STING
Assay type: cell-based
Design: dose or concentration left out as unconfirmed
Conditions: c-di-AMP final concentration in complete medium, 16 hour
Experimental: After two weeks, drug resistance strains occurred.
Incubate for 20 min at room temperature. […] After 24 hours, the supernatants were removed.

T1 sequence (Q86WV6 120-379): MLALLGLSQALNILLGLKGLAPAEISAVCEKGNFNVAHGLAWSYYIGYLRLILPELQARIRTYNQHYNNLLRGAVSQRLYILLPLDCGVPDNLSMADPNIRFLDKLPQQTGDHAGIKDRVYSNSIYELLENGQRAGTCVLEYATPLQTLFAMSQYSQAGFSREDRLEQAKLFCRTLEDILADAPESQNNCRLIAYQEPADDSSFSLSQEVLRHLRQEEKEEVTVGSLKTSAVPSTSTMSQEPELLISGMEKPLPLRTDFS

- luciferase activity compared with control group in which only transfection was performed: significantly increased
SMILES: Nc1ncnc2c1ncn2[C@@H]1O[C@@H]2COP(=O)(O)O[C@H]3[C@@H](O)[C@H](n4cnc5c(N)ncnc54)O[C@@H]3COP(=O)(O)O[C@H]2[C@H]1O [c-di-AMP]
